Data: EPA's ToxValDB 9.5
“And” between values parts separate entries of the source, which are not always exact repeats. Equal entries are not always repeated.

Key:
[1] = system: Mus musculus; conditions: for LD50: acute; for LOAEL / NOAEL: duration: 13 weeks, B6C3F1
[2] = system: Oryctolagus sp.; conditions: for LD50: acute; for NOAEL: reproduction developmental, duration: 13 days, inhalation
[3] = system: Rattus norvegicus
[4] = system: Mus musculus; test: LD0; higher = less toxic; conditions: acute; oral
[5] = system: Canidae; conditions: chronic, Beagle
[6] = system: Gallus sp.; conditions: White Leghorn
[7] = system: Neovison sp.; conditions: repeat dose other; oral; Mink
[8] = system: Monkey; conditions: developmental; oral; M/F; reduced birth weight
[9] = system: Canidae; conditions: chronic, oral, Beagle
[10] = system: Canidae; conditions: chronic; duration: 9 years; oral; capsule; F; Beagle; hepatic
[11] = system: Cavia porcellus; conditions: subchronic; duration: 3 months; inhalation; Guinea Pig
[12] = system: Monkey; conditions: subchronic; duration: 3 months; inhalation
[13] = system: Rattus norvegicus; conditions: repeat dose other; oral
[14] = system: Rattus norvegicus; conditions: chronic; oral; diet; M/F; liver toxicity
[15] = system: Mus musculus; conditions: developmental; duration: 7 days; oral; gavage; M/F; ICR; developmental
[16] = system: Rattus norvegicus; conditions: chronic; duration: 2 years; oral; diet; M/F; Osborne-Mendel; hepatic
[17] = system: Rattus norvegicus; conditions: subchronic; duration: 13 weeks; oral; gavage; M/F; Fischer 344; Deaths + Body Weight Changes: decrease + Urinalysis: Volume increase, Coproporphyrin increase + Blood Chemistry: Cho increase, TG decrease, …
[18] = system: Canidae; conditions: subchronic; duration: 13 weeks; oral; capsule; M/F; Dog Other; histopathologic liver
[19] = system: Rattus norvegicus; conditions: reproduction developmental; inhalation; whole body; M/F; Crl:CD(SD); Hepatic, Urinary
[20] = system: Mus musculus; test: LD100; higher = less toxic; conditions: acute; oral; gavage; B6C3F1
[21] = chronic, duration: 24 months, oral, diet, Sprague-Dawley
[22] = subchronic, duration: 8 weeks, oral, diet, Sprague-Dawley
[23] = subchronic, duration: 90 days, oral, diet
[24] = subchronic, duration: 13 weeks, oral, gavage, F33/N
[25] = reproduction developmental, oral, gavage, generation: F0
[26] = reproduction developmental, duration: 13 weeks, oral, gavage, Fischer 344, generation: F0

## O=C(Nc1ccc(Cl)cc1)Nc1ccc(Cl)c(Cl)c1 [Triclocarban]
[1]; injection, Intraperitoneal
  LD50: 2100 mg/kg
[2]; dermal, occlusive, New Zealand
  LD50: > 10000 mg/kg
[3]; acute, oral, gavage, Sprague-Dawley
  LD50: > 50100 mg/kg
[3]; [21]
  LOAEL: 75 mg/kg-day
  NOAEL: 25 mg/kg-day
[3]; developmental, oral, diet, Sprague-Dawley
  NOAEL: > 3000 ppm
[3]; reproduction developmental, oral, diet, F, Sprague-Dawley
  NOAEL: > 3000 ppm
[3]; reproduction developmental, oral, diet, Sprague-Dawley, generation: F0
  NOAEL: 3000 ppm
[3]; reproduction developmental, oral, diet, Sprague-Dawley, generation: F1
  NOAEL: 1000 ppm
[3]; reproduction developmental, oral, diet, Sprague-Dawley, generation: F2
  NOAEL: 3000 ppm
[3]; [22]
  LOAEL: 250 mg/kg-day
  NOAEL: 75 mg/kg-day
[4]
  LD0: > 5000 mg/kg

## CC(C)(C)c1ccc(OP2OCC3(CO2)COP(Oc2ccc(C(C)(C)C)cc2C(C)(C)C)OC3)c(C(C)(C)C)c1 (stereo not given) [Bis(2,4-di-tert-butylphenyl) pentaerythritol diphosphite]
[5]; duration: 4 months, oral
  NOAEL: 12 mg/kg-day
[6]; acute, oral, gavage
  LD50: > 6080 mg/kg
[2]; dermal, New Zealand
  LD50: > 2000 mg/kg
[3]; acute, inhalation, Sprague-Dawley
  LC50: > 2000 mg/m3
[3]; acute, oral, Sprague-Dawley
  LD50: 5580 mg/kg
[3]; chronic, duration: 24 months, oral, diet, Wistar
  NOAEL: 39 mg/kg-day
[3]; reproduction developmental, duration: 90 days, oral, diet, Crl:CD(SD), generation: F0
  NOAEL: 1000 ppm
[3]; reproduction developmental, duration: 90 days, oral, diet, M, Crl:CD(SD)
  NOAEL: 22 mg/kg-day

## Clc1cccc(-c2cc(Cl)cc(Cl)c2)c1 [Aroclor 1016]
[7]
  LOAEL: 3.43 mg/kg-day
  NOAEL: 1.37 mg/kg-day
[8]
  LOAEL: 0.028 mg/kg-day
  NOAEL: 0.007 mg/kg-day

## Nc1ccc(Cc2ccc(N)c(Cl)c2)cc1Cl [4,4'-Methylenebis(2-chloroaniline)]
[2]; dermal
  LD50: > 5000 mg/kg
[9]; duration: 9 years, capsule, F, hepatic
  LOAEL: 7.3 mg/kg-day
[10]
  LOAEL: 10 mg/kg-day
[4]
  LD0: 640 mg/kg

## CCCCCCCCCc1ccc(OP(Oc2ccc(CCCCCCCCC)cc2)Oc2ccc(CCCCCCCCC)cc2)cc1 [Nonylphenolphosphite(3:1)]
[6]; developmental, duration: 5 days, injection
  NOAEL: 5 mg
[1]; oral, gavage
  LD50: > 10000 mg/kg
[2]; dermal, semiocclusive, New Zealand
  LD50: > 2000 mg/kg
[3]; acute, dermal, semiocclusive, RAI f1
  LD50: > 2000 mg/kg
[3]; acute, injection, Intraperitoneal, RAI f1
  LD50: > 1000 mg/kg
[3]; developmental, duration: 4 weeks, oral, gavage, Sprague-Dawley
  NOAEL: 1000 mg/kg-day
[3]; reproduction developmental, duration: 2 years, oral, diet, generation: F1
  NOAEL: 3300 ppm
[3]; reproduction developmental, duration: 4 weeks, oral, gavage, F, Sprague-Dawley
  NOAEL: 1000 mg/kg-day
[3]; reproduction developmental, duration: 4 weeks, oral, gavage, M, Sprague-Dawley
  NOAEL: 200 mg/kg-day
[3]; reproduction developmental, duration: 4 weeks, oral, gavage, Sprague-Dawley, generation: F0
  NOAEL: 200 mg/kg-day
[3]; reproduction developmental, duration: 4 weeks, oral, gavage, Sprague-Dawley, generation: F1
  NOAEL: 200 mg/kg-day
[3]; subchronic, duration: 12 weeks, oral, diet
  NOAEL (% diet): 1
[3]; [23]
  LOAEL (% diet): 5
  NOAEL (% diet): 1

## CCCCC(CC)COP(=O)(OCC(CC)CCCC)OCC(CC)CCCC (stereo not given) [Tris(2-ethylhexyl) phosphate]
[11]
  LOAEL: 9.6 mg/m3
  NOAEL: 1.6 mg/m3
[12]
  NOAEL: 85 mg/m3
[1]; subchronic, oral, gavage
  LOAEL: 4000 mg/kg-day
  NOAEL: 2000 mg/kg-day
[2]; dermal
  LD50: 20000 mg/kg
[2]; injection, intravenous
  LD50: > 358 mg/kg
[2]; intertracheal
  LD50: > 1810 mg/kg
[3]; acute, inhalation
  LD50: > 0.45 mg/L
[3]; [24]
  LOAEL: 2000 mg/kg-day
  NOAEL: 1000 mg/kg-day
[3]; subchronic, duration: 30 days, oral, diet
  NOAEL: 430 mg/kg-day

## ClC1=C(Cl)[C@]2(Cl)[C@H]3[C@H]([C@@H]4C=C[C@H]3C4)[C@@]1(Cl)C2(Cl)Cl [Aldrin]
[13]
  LOAEL: 1 mg/kg-day
  NOAEL: 0.2 mg/kg-day
[14]
  LOAEL: 0.025 mg/kg-day
[9]; duration: 16 months, diet, M/F, Urinary
  LOAEL: 0.043 mg/kg-day
[15]
  LOAEL: 2 mg/kg-day
[16]
  LOAEL: 0.037 mg/kg-day

## Clc1ccccc1 [Chlorobenzene]
[5]; duration: 6 months, inhalation
  NOAEL: 2.06 mg/L
[5]; duration: 93 days, oral
  NOAEL: 54.5 mg/kg-day
[1]; [25]
  LOAEL: 250 mg/kg-day
  NOAEL: 125 mg/kg-day
[2]; dermal, New Zealand
  LD50: > 7940 mg/kg
[2]; F, New Zealand
  NOAEL: 345 mg/m3
[2]; New Zealand, generation: F1
  NOAEL: 2720 mg/m3
[3]; acute, oral, Sprague-Dawley
  LD50: 1540 mg/kg
[3]; acute, oral, gavage, Fischer 344
  LD50: ≥ 2000 mg/kg and ≤ 4000 mg/kg
[3]; [26]
  LOAEL: 250 mg/kg-day
  NOAEL: 125 mg/kg-day
[3]; reproduction developmental, inhalation, Sprague-Dawley, generation: F0
  NOAEL: 230 mg/m3
[3]; reproduction developmental, inhalation, Sprague-Dawley, generation: F1
  NOAEL: 2070 mg/m3
[3]; reproduction developmental, inhalation, Sprague-Dawley, generation: F2
  NOAEL: 2070 mg/m3
[17]
  NOEL: < 60 mg/kg-day
[18]
  LOAEL: 54.5 mg/kg-day
  NOAEL: 27.2 mg/kg-day
[19]
  NOAEL: 230 mg/m3
[20]
  LD100: 1000 mg/kg
